# Data reported in patent publication US20170114128A1, “USE OF TGF-BETA ANTAGONISTS OF TREAT TYPE-2 DIABETES” (ALBERT EINSTEIN COLLEGE OF MEDICINE, INC., priority 2014, published 2017).
# Experiments:
# [1] = tested on: hypothalamic RNA SGs/PBs genes, IκBα mRNA, Pomc mRNA; assay: Hypothalamic mRNA levels and HuR immunostaining after third-ventricle TGF-β1; type: in vivo, mice
# From the text: POMC neurons direct the pro-T2D effect of TGF-β excess: It was subsequently studied if hypothalamic neurons are critical for the pro-diabetic effects of brain TGF-β excess. […] It was studied if POMC neurons could be crucial for the pro-diabetic effect of brain TGF-β excess. […] To carry out this study, a genetic mouse model was generated with Tgfbr2 knockout specifically in POMC neurons by crossing Tgfbr2lox/lox mice with POMC-Cre mice. As a result, compound offspring POMC-Tgfbr2lox/lox mice were obtained and littermate control Tgfbr2lox/lox mice. These mice were maintained on normal chow feeding or 3-week HFD feeding. […] Taken together, the action of TGF-β in POMC neurons is important for the pro-diabetic effect of brain TGF-β excess. POMC-Cre can target other types of neurons during the developmental stage (34), thus, the pro-diabetic mechanism of TGF-β may involve additional hypothalamic or brain neurons.
# Induction of hypothalamic RNA SGs/PBs by TGF-β or HFD: In exploring how TGF-β could activate hypothalamic NF-κB without requiring pro-inflammatory kinase signaling, attention was directed to a possible role from mRNA regulation. In coping with inflammatory stress, eukaryotic cells can develop a process known as RNA stress response which is characterized by RNA stress granules (SGs) and processing bodies (PBs) (36-38). In this reaction, messenger ribonuclear protein (mRNP) byproducts exit from polysomes and form RNA SGs at discrete cytoplasmic foci. RNA SGs primarily consist of poly(A)+mRNAs-containing 48S pre-initiation complexes, small ribosomal subunits, mRNA decay factor tristetraprolin (TTP), translation initiation factors such as eukaryotic translation initiation factor-4E (eIF4E), eIF4G, eIF4A, eIF4B, poly(A)-binding protein (PABP), and RNA helicases (36-38). RNA stress response can lead to the export of mRNPs into the PBs, a complex which harbors an array of mRNA decay machineries that act to dispose mRNAs from SGs or polysomes (36-38). PBs contain nontranslating mRNAs, translation repressors, mRNA decay machineries (including 5′-3′ mRNA decay system, nonsense-mediated decay pathway, and RNA-induced silencing complex), and mRNA decay factors such as TTP, eIF4E, DEAD box RNA helicase family member p54/RCK, […] (CPEB), B-related factor 1/RNA polymerase III transcription initiation factor IIIB subunit (BRF1), eukaryotic translation initiation factor 4E transporter (4-ET), and RNA-binding protein Smaug (36-38). […] In line with these observations, we examined if the morphology of RNA SGs could be detected in the hypothalamus of these mice. […] Consistently, these morphological changes were found in the hypothalamus of HFD-fed mice but almost not chow-fed mice (supplementary FIG. 6b). […]
# [2] = TGF-β1 concentrations in CSF and blood after third-ventricle injection; type: in vivo, mice
# Method: Brain TGF-β excess impairs glucose tolerance: To study the metabolic effects of brain TGF-β excess, a pharmacological approach was first used by which TGF-β was delivered into the hypothalamic third ventricle of normal C57BL/6 mice via pre-implanted cannula. To optimize the dosage, different doses of TGF-β1 (0, 0.5, 1.0, and 4.0 ng) were injected, and TGF-β1 concentrations measured in the CSF at various time points post-injection. […] Based on this condition, overnight-fasted mice were given intra-third ventricle injections of TGF-β1 in these doses, one injection at night after food was removed, and the second injection in the following morning at 4 hours prior to glucose tolerance test (GTT). […] In sum, a pharmacological induction of brain TGF-β excess can acutely cause pre-diabetic changes including glucose intolerance and insulin resistance.
# Protein, mRNA and peptide analyses. Hypothalami were isolated as previously described (14). Tissue lysis, SDS/PAGE and Western blotting were performed as previously described (19). Primary antibodies in Western blots included anti-IκBα (Santa Cruz, #SC847, 1:500), anti-p-TAK1 (Cell Signaling, #4531, 1:1000), anti-p-IκBα (Cell Signaling, #2859, 1:1000), anti-RelA (Cell Signaling, #3039, 1:1000), anti-p-RelA (Cell Signaling, #4764, 1:1000), and anti-β-actin (Cell Signaling, #4967S, 1:1000), and secondary antibodies were HRP-conjugated anti-rabbit or goat antibody (Pierce, 1:2000). Quantification of Western blots was processed with Image J. Total RNA was extracted from hypothalamic tissue using TRIzol® (Invitrogen), and cDNA was synthesized using M-MLV RT System (Promega). Using SYBR® Green PCR Master Mix (Applied Biosystems), expression levels of target genes were analyzed via PCR amplification and quantification. GAPDH or TBP mRNA levels were used for normalization. […] Serum and CSF TGF-β content were measured using TGF-β ELISA kit (R&D Systems).
substance,measurement,setting,value
"TGF-β1: transforming growth factor-β1 (Sigma), cytokine dissolved in artificial cerebrospinal fluid for third-ventricle injection",HuR-containing aggregates in perinuclear regions of hypothalamic cells,[1]; HuR immunostaining,present
same,hypothalamic increases of RNA SGs/PBs genes,"[1]; injection into the third ventricle of normal mice (4 ng), similar to 3-month HFD",similarly induced
same,hypothalamic IκBα mRNA levels,[1]; intra-third ventricle injection (4 ng),sufficient to decrease
same,Pomc mRNA levels in the hypothalamus vs controls,"[1]; mouse, in vivo",lower
same,CSF TGF-β1 concentration relative to basal concentration,[2]; 60 min post-injection,roughly 2 fold
same,blood TGF-β1 concentration,"[2]; doses 0.5, 1.0, 4.0 ng in third ventricle",None of these doses significantly increased
same,time of peak increase of CSF TGF-β1 concentration,"[2]; post-injection, third ventricle, 0.5-4.0 ng, dose-dependent",15 min
